Assay results taken from US20070238711A1, “Combination Therapy with Glatiramer Acetate and Minocycline for the Treatment of Multiple Sclerosis” (priority 2004, published 2007).
Several values for one entry are separate records, joined by “and”; a condition that tells them apart may be missing. Equal entries are not always repeated.

Columns and labels:
EAE [1] = assay: Experiment 3: high doses of glatiramer acetate and minocycline on EAE; format: in vivo, C57/BL6 mice; conditions: Copaxone 375 μg, minocycline 37.5 mg/kg
Method: The effects of all treatments versus the control are analyzed histologically (hematoxylin-eosin and Luxol fast blue for evidence of inflammation and demyelination, respectively). Cellular infiltrates are characterized by CD3, CD4, CD8, CD56 and CD19 immunohistochemistry. Blind evaluation (on a qualitative scale from + to ++++) is conducted on the following: the density of perivascular infiltrates, the distance of migration of leukocytes into the CNS parenchyma from blood vessels, and the degree of demyelination. The neuropathological assessments are focused on the optic nerve, lumbar cord and brainstem.

severe EAE = assay: Experiment 1: low doses of glatiramer acetate and minocycline on severe EAE (MOG-induced); format: in vivo, C57/BL6 mice; parameters: key to EAE clinical score, individual mouse / EAE clinical score, group average (ave): composite score 0 = no symptoms, 14 = fully quadriplegic, 15 = death; key to Sum of Scores, individual mouse / Sum of Scores, group average (ave): sum of daily clinical scores (0–15 scale) over the experiment; conditions: for effect on clinical scores of EAE: severe EAE, sub-optimal doses, FIG. 2; for Sum of Scores, group average (ave) / Sum of Scores, individual mouse: sum of daily clinical scores over the entire experiment; for effect on disease severity: summary of Experiments 1-2, sub-optimal doses
Method: Intraperitoneal pertussis toxin was given on the day of MOG administration and also 2 days after. FIG. 1 presents a layout of the experimental design. Minocycline was administered intraperitoneally at a sub-optimal dose (25 mg/kg) when the first mouse in the entire experiment developed signs of EAE (See FIG. 1). Minocycline was administered daily until mice were sacrificed. […] Thus, we have developed a new system in order to better differentiate functional outcomes. […] For the tail: 0—no symptoms […] For each of the hind limbs or fore limbs, each assessed separately: 0—no symptoms […] Thus, a fully paralysed quadriplegic animal would attain a score of 14. […] Death is automatically given a score of 15. Another parameter that we have employed is the “sum of scores”. This refers to the addition of each daily clinical score over the entire period of the experiment. This is a reflection of the total burden of disease, and takes into account variations in onset of disease, and the daily scores.

moderate EAE = assay: Experiment 2: low doses of glatiramer acetate and minocycline on moderate EAE; format: in vivo, C57/BL6 mice; conditions: sub-optimal doses, FIG. 4
Description: The protocol of Experiment 1 was followed. […] The number of mice in each group was as follows: 8 in the vehicle group, 11 in the minocycline group, 10 in the Copaxone® group, and 9 in the combination group.

EAE [2] = conditions: cited from earlier work
T lymphocytes = conditions: previous observation; cited from earlier work
multiple sclerosis = conditions: daily subcutaneous injections, 20 mg/injection; cited from earlier work
R-R MS = conditions: versus placebo, 9-month trial; cited from earlier work
[3] = Day 0, 15-point scale, Copaxone 250 μg, minocycline 25 mg/kg i.p.

CN(C)c1ccc(O)c2c1C[C@H]1C[C@H]3[C@H](N(C)C)C(O)=C(C(N)=O)C(=O)[C@@]3(O)C(O)=C1C2=O [Minocycline, [4S-(4∝,4a∝,5a∝,12a∝)]-4,7-bis(dimethylamino)-1,4,4a,5,5a,6,11,12a-octahydro-3,10,12,12a-tetrahydroxy-1,11-dioxo-2-naphthacenecarboxamide]
effect on disease severity (EAE [1]): significantly decreases disease severity | EAE clinical score, group average (ave) (severe EAE; Day 0): 0 | EAE clinical score, individual mouse (severe EAE; [3]): 0 | EAE clinical score, group average (ave) (severe EAE; Day 9): 4 | EAE clinical score, individual mouse (severe EAE; Day 9): 3 (2×) and 4 (7×) | EAE clinical score, group average (ave) (severe EAE; Day 10): 4 | EAE clinical score, individual mouse (severe EAE; Day 10): 4 (6×) and 6 (2×) and 3 | EAE clinical score, group average (ave) (severe EAE; Day 11): 6 | EAE clinical score, individual mouse (severe EAE; Day 11): 8 and 5 and 6 (2×) and 7 (4×) and 4 | EAE clinical score, group average (ave) (severe EAE; Day 12): 7 | EAE clinical score, individual mouse (severe EAE; Day 12): 7 (2×) and 6 and 9 and 8 (4×) and 4 | EAE clinical score, group average (ave) (severe EAE; Day 13): 8 | EAE clinical score, individual mouse (severe EAE; Day 13): 7 and 9 (6×) and 4 and 10 | EAE clinical score, group average (ave) (severe EAE; Day 14): 9 | EAE clinical score, individual mouse (severe EAE; Day 14): 8 (2×) and 10 (5×) and 4 and 9 | EAE clinical score, group average (ave) (severe EAE; Day 15): 9 | EAE clinical score, individual mouse (severe EAE; Day 15): 11 and 10 (5×) and 9 and 4 and 6 | EAE clinical score, group average (ave) (severe EAE; Day 16): 9 | EAE clinical score, individual mouse (severe EAE; Day 16): 11 and 10 (3×) and 8 (3×) and 9 and 3 | EAE clinical score, group average (ave) (severe EAE; Day 17): 8 | EAE clinical score, individual mouse (severe EAE; Day 17): 10 (2×) and 8 (2×) | EAE clinical score, group average (ave) (severe EAE; Day 18): 8 | EAE clinical score, individual mouse (severe EAE; Day 18): 11 (2×) and 6 | EAE clinical score, group average (ave) (severe EAE; Day 19): 7 | EAE clinical score, individual mouse (severe EAE; Day 19): 8 and 11 and 6 | EAE clinical score, group average (ave) (severe EAE; Day 20): 7 | EAE clinical score, individual mouse (severe EAE; Day 20): 8 and 11 and 5 | EAE clinical score, group average (ave) (severe EAE; Day 21): 7 | EAE clinical score, individual mouse (severe EAE; Day 21): 7 and 9 and 5 | EAE clinical score, group average (ave) (severe EAE; Day 22): 7 | EAE clinical score, individual mouse (severe EAE; Day 22): 9 (2×) and 5 | effect on clinical scores of EAE (severe EAE): ineffective | Sum of Scores, group average (ave) (severe EAE): 102.3 | Sum of Scores, individual mouse (severe EAE): 112 and 121 and 93 and 109 (2×) and 55 and 102 and 122 and 98 | effect on disease severity (severe EAE): did not markedly decrease disease severity | effect on EAE severity / disease course (moderate EAE): did not elicit a clinical response | disease activity (EAE [2]; chronic relapsing remitting EAE): dramatically suppress disease activity | severity of disease (EAE [2]; mild EAE): attenuate the severity | course of disease (EAE [2]; severe EAE): delay the course

L-glutamic acid polymer with L-alanine, L-lysine and L-tyrosine, acetate (salt) [Copaxone ®]
efficacy previously observed in the T cell transmigration assay (T lymphocytes): lack of efficacy | effect on disease severity (EAE [1]): significantly decreases disease severity | EAE clinical score, group average (ave) (severe EAE; Day 0): 0 | EAE clinical score, individual mouse (severe EAE; [3]): 0 | EAE clinical score, group average (ave) (severe EAE; Day 9): 1 | EAE clinical score, individual mouse (severe EAE; Day 9): 0 (7×) and 3 and 2 | EAE clinical score, group average (ave) (severe EAE; Day 10): 1 | EAE clinical score, individual mouse (severe EAE; Day 10): 0 (5×) and 3 (2×) and 1 and 2 | EAE clinical score, group average (ave) (severe EAE; Day 11): 3 | EAE clinical score, individual mouse (severe EAE; Day 11): 0 (3×) and 4 (2×) and 7 and 8 and 2 and 6 | EAE clinical score, group average (ave) (severe EAE; Day 12): 4 | EAE clinical score, individual mouse (severe EAE; Day 12): 0 (2×) and 5 (2×) and 7 (2×) and 2 and 6 and 8 | EAE clinical score, group average (ave) (severe EAE; Day 13): 6 | EAE clinical score, individual mouse (severe EAE; Day 13): 0 (2×) and 9 (3×) and 5 and 8 (2×) and 7 | EAE clinical score, group average (ave) (severe EAE; Day 14): 7 | EAE clinical score, individual mouse (severe EAE; Day 14): 3 and 8 (5×) and 10 and 0 and 6 | EAE clinical score, group average (ave) (severe EAE; Day 15): 8 | EAE clinical score, individual mouse (severe EAE; Day 15): 4 and 10 (6×) and 0 and 8 | EAE clinical score, group average (ave) (severe EAE; Day 16): 7 | EAE clinical score, individual mouse (severe EAE; Day 16): 8 (4×) and 10 (2×) and 11 and 0 and 3 | EAE clinical score, group average (ave) (severe EAE; Day 17): 7 | EAE clinical score, individual mouse (severe EAE; Day 17): 8 (2×) and 10 (2×) | EAE clinical score, group average (ave) (severe EAE; Day 18): 7 | EAE clinical score, individual mouse (severe EAE; Day 18): 9 and 8 and 10 | EAE clinical score, group average (ave) (severe EAE; Day 19): 7 | EAE clinical score, individual mouse (severe EAE; Day 19): 7 and 8 and 12 | EAE clinical score, group average (ave) (severe EAE; Day 20): 6 | EAE clinical score, individual mouse (severe EAE; Day 20): 5 and 8 and 11 | EAE clinical score, group average (ave) (severe EAE; Day 21): 6 | EAE clinical score, individual mouse (severe EAE; Day 21): 7 (2×) and 9 | EAE clinical score, group average (ave) (severe EAE; Day 22): 6 | EAE clinical score, individual mouse (severe EAE; Day 22): 5 (2×) and 9 | effect on clinical scores of EAE (severe EAE): slight benefit | Sum of Scores, group average (ave) (severe EAE): 75.56 | Sum of Scores, individual mouse (severe EAE): 56 and 88 and 117 and 95 and 0 and 100 and 87 (2×) and 50 | effect on disease severity (severe EAE): did not markedly decrease disease severity | relapse rates, progression of disability, new MRI lesions, black holes (multiple sclerosis): reduce relapse rates | gadolinium-enhancing lesions progressing to persistent black holes (R-R MS): significantly fewer | effect on EAE severity / disease course (moderate EAE): slight attenuation of disease course
